Source: patent publication US20240041042A1, “1-(PYRIDYL)-5-AZINYLPYRAZOLE DERIVATIVES, AND THEIR USE FOR CONTROL OF UNDESIRED PLANT GROWTH” (Bayer Aktiengesellschaft, priority 2020, published 2024)
Where two headings read alike, the source gives them in different places.

What was measured:
Format in all cases: in vivo
Viola tricolor (VIOTR) [1] = assay: Pre-emergence herbicidal action against VIOTR
How it was run: (§1)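 Read-out is visual percent damage relative to untreated pots, with 100% meaning dead plants and 0% meaning no difference, assessed roughly three weeks after treatment. Compounds were applied pre-emergence to the covering soil at up to 320 g/ha.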

[2] = test system: Polygonum convolvulus (POLCO); assay: Pre-emergence herbicidal action against POLCO; details: dosage 320 g/ha
How it was run: as §1

Setaria viridis (SETVI) [3] = assay: Post-emergence herbicidal action against SETVI
How it was run: (§2)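 Values are percent visual activity (0% like control, 100% plants dead) after about 3 weeks in the greenhouse. Treatment: post-emergence spray at one-leaf stage, 600 l/ha spray volume, 0.5% additive, doses 320 g/ha or lower.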

Lolium rigidum (LOLRI) [4] = assay: Pre-emergence herbicidal action against LOLRI
How it was run: as §1

[5] = test system: Alopecurus myosuroides (ALOMY); assay: Pre-emergence herbicidal action against ALOMY; details: scored visually after about 3 weeks, 100% = plants have died
How it was run: as §1

Setaria viridis (SETVI) [6] = assay: Pre-emergence herbicidal action against SETVI
How it was run: as §1

Viola tricolor (VIOTR) [7] = assay: Post-emergence herbicidal action against VIOTR
How it was run: as §2

[8] = test system: Alopecurus myosuroides (ALOMY); assay: Post-emergence herbicidal action against ALOMY; details: visual rating about 3 weeks after treatment vs untreated controls (100% = plants have died, 0% = like control plants)
How it was run: as §2

[9] = test system: Echinochloa crus-galli (ECHCG); assay: Post-emergence herbicidal action against ECHCG
How it was run: as §2

[10] = test system: Amaranthus retroflexus (AMARE); assay: Pre-emergence herbicidal action against AMARE; details: visual scoring after about 3 weeks vs untreated controls
How it was run: as §1

Lolium rigidum (LOLRI) [11] = assay: Post-emergence herbicidal action against LOLRI
How it was run: as §2

Oryza sativa (ORYSA) [12] = details: pre-emergence, 80 g/ha, crop plant compatibility, in comparison to untreated controls
How it was run: (§3)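 Scoring: visual, % of untreated control, about 3 weeks after a pre-emergence application to the soil surface. Application used WP or EC formulations diluted in water with 0.5% additive at 600 l/ha; dosage levels are marked by suffixes a, b and c.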

Zea mays (ZEAMX) [13] = details: pre-emergence, 80 g/ha, crop plant compatibility, in comparison to untreated controls
How it was run: as §3

Oryza sativa (ORYSA) [14] = details: crop plant compatibility
How it was run: (§4)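 One-leaf-stage crops (2–3 wk post-sowing, sandy loam, greenhouse) sprayed on green parts; 0.5% additive, 600 l/ha water. Rated by eye ~3 wk later, % vs untreated; suffixes a/b/c mark different dosages.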

Zea mays (ZEAMX) [15] = details: for Post-emergence action against ZEAMX in %: crop plant compatibility, 80 g/ha, effect vs untreated controls; for Post-emergence action against ZEAMX in % (crop plant compatibility): 20 g/ha, effect in comparison to untreated controls
How it was run: as §4

[16] = test system: Pharbitis purpurea (PHBPU); assay: Post-emergence herbicidal action against PHBPU
How it was run: as §2

Avena fatua (AVEFA) [17] = assay: Pre-emergence herbicidal action against AVEFA; details: 320 g/ha, visual scoring after about 3 weeks vs untreated controls
How it was run: as §1

[18] = test system: Amaranthus retroflexus (AMARE); assay: Post-emergence herbicidal action against AMARE
How it was run: as §2

[19] = test system: Verconica persica (VERPE); assay: Post-emergence herbicidal action against VERPE
How it was run: as §2

Avena fatua (AVEFA) [20] = assay: Post-emergence herbicidal action against AVEFA; details: visual rating about 3 weeks after treatment
How it was run: as §2

[21] = test system: Abutilon theophrasti (ABUTH); assay: Post-emergence herbicidal action against ABUTH; details: visual rating about 3 weeks after treatment vs untreated controls (100% = plants have died, 0% = like control plants)
How it was run: as §2

[22] = test system: Matricaria inodora (MATIN); assay: Post-emergence herbicidal action against MATIN
How it was run: as §2

[23] = test system: Verconica persica (VERPE); assay: Pre-emergence herbicidal action against VERPE
How it was run: as §1

[24] = test system: Echinochloa crus-galli (ECHCG); assay: Pre-emergence herbicidal action against ECHCG
How it was run: as §1

[25] = test system: Pharbitis purpurea (PHBPU); assay: Pre-emergence herbicidal action against PHBPU; details: dosage 320 g/ha
How it was run: as §1

[26] = test system: Polygonum convolvulus (POLCO); assay: Post-emergence herbicidal action against POLCO; details: dosage 320 g/ha
How it was run: as §2

[27] = test system: Matricaria inodora (MATIN); assay: Pre-emergence herbicidal action against MATIN
How it was run: as §1

[28] = 80 g/ha, effect in comparison to untreated controls
[29] = 320 g/ha, visual rating about 3 weeks after treatment
[30] = 20 g/ha, effect vs untreated controls
[31] = 80 g/ha, visual rating about 3 weeks after treatment vs untreated controls (100% = plants have died, 0% = like control plants)

Structure (SMILES)	Pre-emergence action against VIOTR in % (Viola tricolor (VIOTR) [1]; 320 g/ha, Viola tricolor) [%]	Pre-emergence action against POLCO in % [2] [%]	Pre-emergence action against LOLRI in % (Lolium rigidum (LOLRI) [4]; dosage 320 g/ha) [%]	Pre-emergence action against ALOMY ([5]; 320 g/ha) [%]	Pre-emergence action against SETVI in % (Setaria viridis (SETVI) [6]; dosage 320 g/ha) [%]	Post-emergence action against VIOTR in % (Viola tricolor (VIOTR) [7]; 80 g/ha) [%]	Post-emergence action against ALOMY in % ([8]; 320 g/ha) [%]	Post-emergence action against ECHCG in % ([9]; dosage 320 g/ha) [%]	Pre-emergence action against AMARE in % ([10]; 320 g/ha) [%]	Pre-emergence action against ORYSA in % (Oryza sativa (ORYSA) [12]) [%]	Pre-emergence action against ZEAMX in % (Zea mays (ZEAMX) [13]) [%]	Post-emergence action against ORYSA in % (Oryza sativa (ORYSA) [14]; [28]) [%]	Post-emergence action against ZEAMX in % (Zea mays (ZEAMX) [15]) [%]	Post-emergence action against PHBPU in % ([16]; dosage 320 g/ha) [%]	Pre-emergence action against AVEFA in % (Avena fatua (AVEFA) [17]) [%]	Pre-emergence action against VIOTR in % (Viola tricolor (VIOTR) [1]; dosage 80 g/ha) [%]	Post-emergence action against VERPE in % ([19]; dosage 80 g/ha) [%]	Post-emergence action against ECHCG in % ([9]; dosage 80 g/ha) [%]	Pre-emergence action against ECHCG in % ([24]; dosage 320 g/ha) [%]	Pre-emergence action against MATIN in % ([27]; dosage 320 g/ha) [%]	other results
COCCOC(=O)COc1nn(-c2ncccc2C(F)(F)F)c(-c2ccc(F)nc2)c1Cl [Example I-362]	100	80	100	100	80	80	90	80	90	20	0	10	0	80							Post-emergence action against SETVI in % (Setaria viridis (SETVI) [3]; dosage 320 g/ha): 80%; Post-emergence action against VIOTR in % (Viola tricolor (VIOTR) [7]; 320 g/ha): 80%; Post-emergence action against LOLRI in % (Lolium rigidum (LOLRI) [11]; dosage 320 g/ha): 80%
COC(=O)COc1nn(-c2nc(F)ccc2F)c(-c2ccc(F)nc2)c1Br [Example I-369]	100	90	90	100	90	80	100	80	90	20		20	10	90	80	80	80	80	100	90	Post-emergence action against AMARE in % [18, 29]: 80%; Post-emergence action against VERPE in % ([19]; 320 g/ha, VERPE): 80%; Post-emergence action against AVEFA in % (Avena fatua (AVEFA) [20]; 320 g/ha): 80%; Post-emergence action against ABUTH in % ([21]; 320 g/ha): 80%; Pre-emergence action against ALOMY ([5]; 80 g/ha): 80%; Post-emergence action against VIOTR in % (Viola tricolor (VIOTR) [7]; 320 g/ha): 80%; Post-emergence action against ALOMY in % ([8]; 80 g/ha): 80%; Post-emergence action against MATIN in % ([22]; dosage 320 g/ha): 80%; Pre-emergence action against VERPE in % ([23]; dosage 80 g/ha): 90%; Pre-emergence action against VERPE in % ([23]; dosage 320 g/ha): 90%; Pre-emergence action against AMARE in % ([10]; 80 g/ha): 90%; Post-emergence action against LOLRI in % (Lolium rigidum (LOLRI) [11]; dosage 80 g/ha): 80%; Post-emergence action against LOLRI in % (Lolium rigidum (LOLRI) [11]; dosage 320 g/ha): 90%; Pre-emergence action against PHBPU in % [25]: 90%; Post-emergence action against PHBPU in % ([16]; dosage 80 g/ha): 80%; Post-emergence action against POLCO in % [26]: 80%; Pre-emergence action against MATIN in % ([27]; dosage 80 g/ha): 80%
CCOC(=O)COc1nn(-c2ncccc2Cl)c(-c2ccc(F)nc2)c1Br [Example I-23]	100	90	100	100	100				100	10	10	10	10		90	90	80	80	100	90	Post-emergence action against AVEFA in % (Avena fatua (AVEFA) [20]; 80 g/ha): 90%; Post-emergence action against ALOMY in % ([8]; 80 g/ha): 90%; Pre-emergence action against VERPE in % ([23]; dosage 320 g/ha): 90%; Pre-emergence action against AMARE in % ([10]; 80 g/ha): 90%; Pre-emergence action against PHBPU in % [25]: 90%; Post-emergence action against ORYSA in % (Oryza sativa (ORYSA) [14]; [30]): 0%; Post-emergence action against ZEAMX in % (crop plant compatibility) (Zea mays (ZEAMX) [15]): 0%
CCOC(=O)CSc1nn(-c2ccccn2)c(-c2cncc(F)c2)c1I [Example I-152]	90			80	90		80	80	100	20	10	0		90		80		80	90	90	Post-emergence action against AMARE in % [18, 31]: 80%; Post-emergence action against AMARE in % [18, 29]: 80%; Post-emergence action against VERPE in % ([19]; 320 g/ha, VERPE): 80%; Post-emergence action against SETVI in % (Setaria viridis (SETVI) [3]; dosage 80 g/ha): 80%; Post-emergence action against SETVI in % (Setaria viridis (SETVI) [3]; dosage 320 g/ha): 80%; Post-emergence action against ABUTH in % ([21]; 320 g/ha): 80%; Post-emergence action against PHBPU in % ([16]; dosage 80 g/ha): 80%; Post-emergence action against POLCO in % [26]: 80%
COCCOC(=O)[C@@H](C)Oc1nn(-c2ncccc2F)c(-c2ccc(F)nc2)c1Br [Example I-35]	100	90	100	100	100	90			100	20		0	10		100	100	100	90	100	100	Post-emergence action against AMARE in % [18, 31]: 100%; Post-emergence action against AVEFA in % (Avena fatua (AVEFA) [20]; 80 g/ha): 100%; Post-emergence action against SETVI in % (Setaria viridis (SETVI) [3]; dosage 80 g/ha): 100%; Pre-emergence action against LOLRI in % (Lolium rigidum (LOLRI) [4]; dosage 80 g/ha): 90%; Post-emergence action against ABUTH in % ([21]; 80 g/ha): 90%; Pre-emergence action against ALOMY ([5]; 80 g/ha): 90%; Pre-emergence action against SETVI in % (Setaria viridis (SETVI) [6]; dosage 80 g/ha): 100%; Post-emergence action against ALOMY in % ([8]; 80 g/ha): 90%; Post-emergence action against MATIN in % ([22]; dosage 80 g/ha): 90%; Pre-emergence action against VERPE in % ([23]; dosage 320 g/ha): 100%; Pre-emergence action against AMARE in % ([10]; 80 g/ha): 100%; Pre-emergence action against ECHCG in % ([24]; dosage 80 g/ha): 90%; Post-emergence action against LOLRI in % (Lolium rigidum (LOLRI) [11]; dosage 80 g/ha): 90%; Pre-emergence action against PHBPU in % [25]: 90%; Post-emergence action against ORYSA in % (Oryza sativa (ORYSA) [14]; [30]): 0%; Post-emergence action against ZEAMX in % (crop plant compatibility) (Zea mays (ZEAMX) [15]): 10%
